The NIST ThermoML archive (doi:10.1016/j.jct.2011.05.028)
Several values for one entry are separate records, joined by “and”; a condition that tells them apart may be missing. Equal entries are not always repeated. Numbers after ± are expanded uncertainties.

Details: Liquid, Transpiration method

[N-]=[N+]=NCCO [2-azidoethanol]
Details | vapor or sublimation pressure [kPa]
284.6 K | 0.021 ± 0.0016
287.3 K | 0.0267 ± 0.0021
288.8 K | 0.0298 ± 0.0023
291.8 K | 0.0398 ± 0.0031
294.8 K | 0.052 ± 0.004
297.7 K | 0.0664 ± 0.0052
300.7 K | 0.088 ± 0.0068
303.6 K | 0.1076 ± 0.0083
306.6 K | 0.1398 ± 0.011
309 K | 0.1676 ± 0.013
309.6 K | 0.1718 ± 0.013
312 K | 0.2073 ± 0.016
312.6 K | 0.2168 ± 0.017
316 K | 0.2782 ± 0.021
316.1 K | 0.2882 ± 0.022

CCOCCN=[N+]=[N-] [(azidoethoxy)ethane]
Details | vapor or sublimation pressure [kPa]
274.1 K | 0.2423 ± 0.019
275.7 K | 0.2804 ± 0.022
277.1 K | 0.3181 ± 0.024
277.9 K | 0.3191 ± 0.024
278.7 K | 0.3325 ± 0.025
279.4 K | 0.3333 ± 0.026
280.2 K | 0.3892 ± 0.03
281.5 K | 0.4113 ± 0.032
282.4 K | 0.4364 ± 0.034
283.2 K | 0.4705 ± 0.037
284.8 K | 0.5331 ± 0.041
286.2 K | 0.5994 ± 0.046
287.8 K | 0.6765 ± 0.052
289.2 K | 0.7246 ± 0.055
290.7 K | 0.7842 ± 0.06
292.2 K | 0.8444 ± 0.065
292.3 K | 0.8535 ± 0.066
293.7 K | 0.9715 ± 0.075
295.2 K | 1.061 ± 0.082
296.7 K | 1.173 ± 0.091
298.2 K | 1.313 ± 0.1
300.7 K | 1.55 ± 0.12

[N-]=[N+]=NC1CCCCC1 [azidocyclohexane]
Details | vapor or sublimation pressure [kPa]
279.6 K | 0.0856 ± 0.007
281.6 K | 0.1002 ± 0.0082
283.4 K | 0.1159 ± 0.0095
285.3 K | 0.1366 ± 0.011
286.6 K | 0.1432 ± 0.012
287.2 K | 0.1571 ± 0.013
288.9 K | 0.1754 ± 0.014
290.2 K | 0.1885 ± 0.015
291.9 K | 0.2153 ± 0.018
293.2 K | 0.231 ± 0.019
295.5 K | 0.2749 ± 0.022
297.1 K | 0.3013 ± 0.025
298.3 K | 0.3332 ± 0.027
300.1 K | 0.3875 ± 0.031
301.3 K | 0.3917 ± 0.032
303.1 K | 0.4574 ± 0.037

[N-]=[N+]=NCSc1ccccc1 [azidomethyl phenyl sulfide]
Details | vapor or sublimation pressure [kPa]
299.6 K | 0.00448 ± 0.00033
303.5 K | 0.0064 ± 0.00046
307.3 K | 0.00918 ± 0.00066
310.3 K | 0.01158 ± 0.00083
313.3 K | 0.01502 ± 0.0011
316.2 K | 0.01866 ± 0.0013
319.2 K | 0.02463 ± 0.0018
324.2 K | 0.03511 ± 0.0025

[N-]=[N+]=NC1CCCC1 [cyclopentyl azide]
Details | vapor or sublimation pressure
275.5 K | 0.3701 ± 0.028 kPa
279.2 K | 0.4454 ± 0.033 kPa
281.3 K | 0.48 ± 0.036 kPa
283.2 K | 0.5664 ± 0.043 kPa
285.3 K | 0.6268 ± 0.047 kPa
287 K | 0.722 ± 0.054 kPa
288.7 K | 0.7419 ± 0.056 kPa
291.1 K | 0.8591 ± 0.065 kPa
293 K | 0.9879 ± 0.074 kPa and 0.9833 ± 0.074 kPa
295.1 K | 1.102 ± 0.082 kPa
295.8 K | 1.1 ± 0.085 kPa
297.2 K | 1.342 ± 0.1 kPa
298.5 K | 1.418 ± 0.11 kPa
299.1 K | 1.45 ± 0.11 kPa
300.8 K | 1.466 ± 0.15 kPa
301.1 K | 1.615 ± 0.16 kPa
303.1 K | 1.88 ± 0.14 kPa
303.3 K | 1.899 ± 0.14 kPa
305.8 K | 1.953 ± 0.16 kPa
306.1 K | 2.066 ± 0.17 kPa
308.2 K | 2.239 ± 0.17 kPa
310.7 K | 2.494 ± 0.19 kPa
313.3 K | 2.898 ± 0.22 kPa
317.9 K | 3.913 ± 0.29 kPa
323.1 K | 4.896 ± 0.37 kPa
327.7 K | 5.951 ± 0.45 kPa
333.4 K | 7.854 ± 0.59 kPa

CC(=O)OC1CCCC1 [cyclopentyl ethanoate]
Details | vapor or sublimation pressure [kPa]
274.1 K | 0.0795 ± 0.0056
276.1 K | 0.0894 ± 0.0064
278.2 K | 0.1067 ± 0.0076
281.3 K | 0.1295 ± 0.0093
283.2 K | 0.1597 ± 0.011
286.3 K | 0.1983 ± 0.014
288.4 K | 0.2248 ± 0.016
291.2 K | 0.278 ± 0.02
293.2 K | 0.3029 ± 0.022
296.4 K | 0.4022 ± 0.029
298.2 K | 0.4443 ± 0.032
303.2 K | 0.6114 ± 0.043
308.4 K | 0.8519 ± 0.06

CCOC(=O)CN=[N+]=[N-] [ethyl azidoacetate]
Details | vapor or sublimation pressure [kPa]
301.4 K | 0.1784 ± 0.016
304.8 K | 0.2378 ± 0.021
308.3 K | 0.3083 ± 0.028
314.3 K | 0.4549 ± 0.041
320.2 K | 0.6452 ± 0.057
323.2 K | 0.7874 ± 0.07
326.2 K | 0.9687 ± 0.086
332.2 K | 1.38 ± 0.12
338.1 K | 1.929 ± 0.17
341.1 K | 2.397 ± 0.21
344.3 K | 2.714 ± 0.24
